Experimental data from PMC11643494, “Structure–Activity Relationship Studies in a Series of 2-Aryloxy-N-(pyrimidin-5-yl)acetamide Inhibitors of SLACK Potassium Channels” (Molecules, 2024).

Target: T1, Human G288S SLACK (Homo sapiens, UniProt Q5JUK3, G269S)
T1 construct: host or cells: CHO-K1
T1 sequence (Q5JUK3 1-1235 isoform Q5JUK3-3 G288S): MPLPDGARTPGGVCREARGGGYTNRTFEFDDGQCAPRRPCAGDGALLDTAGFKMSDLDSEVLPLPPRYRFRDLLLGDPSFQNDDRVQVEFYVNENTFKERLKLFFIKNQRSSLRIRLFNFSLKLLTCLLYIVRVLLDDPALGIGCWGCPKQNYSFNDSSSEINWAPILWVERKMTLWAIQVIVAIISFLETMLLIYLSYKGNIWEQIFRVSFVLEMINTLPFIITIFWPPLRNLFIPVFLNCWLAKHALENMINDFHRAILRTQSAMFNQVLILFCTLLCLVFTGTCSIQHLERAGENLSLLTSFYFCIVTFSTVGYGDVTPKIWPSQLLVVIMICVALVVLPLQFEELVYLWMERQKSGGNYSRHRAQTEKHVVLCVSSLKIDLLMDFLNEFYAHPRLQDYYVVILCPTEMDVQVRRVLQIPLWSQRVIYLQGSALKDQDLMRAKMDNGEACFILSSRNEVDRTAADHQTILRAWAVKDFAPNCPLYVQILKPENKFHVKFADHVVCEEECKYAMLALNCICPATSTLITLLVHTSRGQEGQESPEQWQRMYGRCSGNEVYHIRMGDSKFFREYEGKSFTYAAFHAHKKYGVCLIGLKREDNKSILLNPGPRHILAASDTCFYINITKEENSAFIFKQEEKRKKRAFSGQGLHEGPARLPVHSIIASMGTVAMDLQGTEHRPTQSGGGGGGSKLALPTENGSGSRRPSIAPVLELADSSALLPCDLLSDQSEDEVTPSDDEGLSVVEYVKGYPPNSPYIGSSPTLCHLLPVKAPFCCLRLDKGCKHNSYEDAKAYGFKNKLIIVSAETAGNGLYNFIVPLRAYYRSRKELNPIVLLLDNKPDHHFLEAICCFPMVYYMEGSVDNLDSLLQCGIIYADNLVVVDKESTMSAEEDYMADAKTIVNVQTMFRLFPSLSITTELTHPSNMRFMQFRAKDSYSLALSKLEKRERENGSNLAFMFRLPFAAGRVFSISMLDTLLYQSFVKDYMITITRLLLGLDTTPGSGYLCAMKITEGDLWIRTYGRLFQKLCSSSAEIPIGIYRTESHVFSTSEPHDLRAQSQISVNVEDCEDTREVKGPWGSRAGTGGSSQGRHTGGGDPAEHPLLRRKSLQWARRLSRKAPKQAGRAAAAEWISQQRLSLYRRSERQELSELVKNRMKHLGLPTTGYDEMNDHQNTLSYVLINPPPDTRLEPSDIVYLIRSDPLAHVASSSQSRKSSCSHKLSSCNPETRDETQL
Experiment: Whole-cell APC in CHO-K1 cells stably expressing human G288S SLACK
Assay type: cell-based
Excerpt: Finally, we chose to screen the same two compounds versus mouse SLACK and two clinically relevant GOF SLACK mutants in APC assays utilizing CHO-K1 cells stably expressing these targets (Table 7). Screening versus the mouse homolog was deemed important for evaluating the potential of the series to ultimately lead to a useful in vivo tool via further optimization.
Stably transfected monoclonal HEK293 cell lines expressing SLICK, Maxi-K α1/β3, Maxi-K α1/β4, CaV3.2, GIRK 1/2, KV2.1, KV7.2, NaV1.7, and TASK-1 were generated as previously described. Stably transfected monoclonal HEK293 cell lines expressing hERG were generated as previously described. CHO-K1 cells expressing human SLACK and disease-associated human SLACK mutations, G288S and A934T, were generated by transfecting a PiggyBac TRE mammalian expression vector (VectorBuilder, Chicago, IL, USA) containing KCNT1. FuGENE 6 (Promega, Madison, WI, USA) transfection reagent and protocol, together with Opti-MEM (Thermo Fisher Scientific, Waltham, MA, USA), were utilized according to the manufacturer’s instructions.
Automated patch clamp recording was performed with a SyncroPatch 768 PE system (Nanion, Munich, Germany) as previously described. Whole-cell recordings were performed at room temperature. Cells were harvested by first washing with PBS without Mg^2+ or Ca^2+ (Gibco, Billings, MT, USA) to remove cell culture medium, followed by dissociation with TryPLE (Gibco, Billings, MT, USA). Cells were then resuspended and diluted to 200,000 cells/mL in external solution. External solution contained 105 mM NaCl, 4 mM KCl, 1 mM MgCl2, 5 mM CaCl2, 10 mM HEPES, 40 mM N-Methyl-D-glucamine chloride, titrated to pH 7.4 with NaOH and osmolarity of 300 mOsm/kg; internal solution contained 70 mM NaCl, 70 mM KF, 10 mM KCl, 5 mM EGTA, 5mM HEPES, titrated to a pH 7.2 with KOH and osmolarity of 295 mOsm/kg.
The APC protocol was set as following: Cells were held at […] −80 mV for 100 ms, then a ramp protocol was performed from −100 mV to 80 mV at 0.4 mV/ms, hold the cell at −80 mV for another 100 ms, then steps were performed at −20 mV, 0 mV, +20 mV, +40 mV, and +60 mV for 100 ms of each step. Whole-cell currents were measured at 0 mV and normalized to current after external buffer addition.

Row | SMILES | G288S SLACK inhibition, result in words (APC, CHO-K1 cells) | IC50 (APC, CHO-K1 cells, Human G288S SLACK) [µM] | Imax (Human G288S SLACK, maximum inhibition at 30 µM standardized to VU0606170 (set at 100%)) [%]
1 | CC(C)(Oc1ccc(Cl)cc1)C(=O)Nc1cnc(Oc2c(F)cccc2F)nc1 [Analog 40] | inactive |  | 
2 | CN(c1ccc(C#N)cc1)c1ncc(NC(=O)C(C)(C)Oc2ccc(Cl)cc2)cn1 [Analog 66] | only weakly active | > 10 | 40
